Patent publication US20070213291A1, “Therapeutically useful synthetic oligonucleotides” (priority 1999, published 2007)

Tests used:
[1] = tested on: Jurkat human leukemia T cells; test: Inhibition of Jurkat human leukemia T cell proliferation (MTT reduction); type: cell-based; conditions: for % INHIBITION of Jurkat human leukemia T cell proliferation: 100 μg/ml sequence, 48 h, 2.5×10^5 cells/ml
How it was run: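 Jurkat cells at 2.5×10^5 cells/ml exposed to 100 μg/ml of 2–45-base A/C/G/T sequences (0 μg/ml control) for 48 h, 37° C, 5% CO2. Viability by MTT reduction read at 570 nm.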

[2] = Melting temperature (Tm) of sequences; type: physicochemical
[3] = tested on: CF-51 canine mammary gland cancer cells; test: Inhibition of CF-51 cell proliferation (MTT); type: cell-based; conditions: 100 μg/ml, 48 h, 5×10^5 cells/ml
Protocol: (§1) Cells were seeded in 6 (1 ml/well), 24 (0.5 ml/well) or 96 (0.1 ml/well) well flat-bottom microplates and were maintained at 37° C. in a 5% CO2 atmosphere. Unless stated otherwise, 2.5×10^5 cells/ml were incubated with 0 μg/ml (control) and 100 μg/ml (treated) of 2 to 45 base sequences containing A, C, G and T for 48 h.
(§2) Cell proliferation was measured using dimethylthiazol-diphenyl-tetrazolium (MTT) reduction (Mosman et al. J. Immunol. Methods 65:55, 1983). MTT was measured at a wavelength of 570 nm using a multiplate spectrophotometer reader (ELX800, Bio-TEK Instruments Inc., Winooski, Vt.).
(§3) D-17 canine osteosarcoma cells and CF-51 canine mammary gland cancer cells are solid tumor models. D-17 canine osteosarcoma cells (5×10^5 cells/ml) (Table 20) and CF-51 canine mammary gland cancer cells (5×10^5 cells/ml) (Table 21) were incubated with 6, 9, 17, 27 and 33 base GT-sequences and with a 15 base ACG sequence.

[4] = tested on: EL-4 murine T lymphoma cells; test: Inhibition of EL-4 cell proliferation (MTT); type: cell-based; conditions: 100 μg/ml, 48 h
Protocol: as §1, §2
EL-4 murine lymphoma T cells are a suspension tumor model. EL-4 murine lymphoma T cells were incubated with 6, 18, 27 and 33 base GT sequences and with a 15 base ACG sequence (Table 18).

[5] = tested on: Jurkat human leukemia T cells; test: Cell cycle stage in Jurkat cells (propidium iodide flow cytometry); type: cell-based; conditions: Jurkat, 24 h, 100 μg/ml
How it was run: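 Exponentially growing Jurkat cells were exposed for 24 h to 2–45-base A/C/G/T oligonucleotides, or at 1×10^6 cells/ml to 6-base GT and AC strands, alone (heated 10 min, 65 °C) or hybridized 1:1. Detergent-, trypsin-, RNase- and spermine-treated nuclei were propidium iodide-stained and scored for G0/G1, early/mid/late S and G2/M by doublet-discriminating flow cytometry.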

[6] = tested on: MCF-7 human breast cancer cells; test: Inhibition of MCF-7 cell proliferation (MTT); type: cell-based
How it was run: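 Cells at 2.5×10^5 cells/ml (GT 3- and 6-base series at 5×10^5 cells/ml) treated with 100 μg/ml of 2-45-base oligonucleotide sequences versus untreated control for 48 h at 37 °C, 5% CO2. Proliferation read by MTT reduction at 570 nm.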

[7] = tested on: D-17 canine osteosarcoma cells; test: Inhibition of D-17 cell proliferation (MTT); type: cell-based; conditions: 100 μg/ml, 48 h, 5×10^5 cells/ml
Protocol: as §1, §2, §3

[8] = tested on: EL-4 murine T lymphoma cells; test: EL-4 murine T lymphoma in C57/BL6 mice; type: in vivo; conditions: after 4 weeks of treatment, compared with group 1 (saline)
Protocol: EL-4 murine T lymphoma cells are implanted into C57/BL6 mice. The mice are divided into 6 groups of 10 mice. On day 0, group 1 mice receive saline, group 2 mice receive 3 base GT SEQ ID NO:8, group 3 mice receive 6 base SEQ ID NO:25, group 4 mice receive 6 base AG SEQ ID NO:45, group 5 mice receive 18 base GT SEQ ID NO: 18 and group 6 mice receive 27 base GT SEQ ID NO:1. After 4 weeks of treatment, the mice are sacrificed and tumor mass is determined.

[9] = tested on: Jurkat human leukemia T cells; test: NuMA release into supernatant (ELISA); type: cell-based; conditions: Jurkat 1×10^6/ml
Protocol: The redistribution of phosphatidylserine in the plasma membrane during apoptosis was measured by flow cytometry using FITC-conjugated annexin V (BD Pharmingen, San Diego, Calif.). NuMA release into the supernatant was determined using a commercial ELISA kit (Oncogen/Calbiochem, Cambridge, Mass.).
Jurkat human leukemia T cells were incubated with 50 μM of 3, 4, 5, 6 and 7 GT base sequences, a 5 base ACGT sequence, 6 base AG, GG, AGT and CGT sequences and a 7 base GG sequence.
Jurkat human leukemia T cells (1×10^6/ml) were incubated with 6 and 27 GT base sequences (Table 32). NuMA was determined as in Example 23.
Jurkat human cell leukemia T cells were incubated for 24 h with 6 base GT SEQ ID NO:25, complementary 6 base AC SEQ ID NO:79, and 6 base GT SEQ ID NO:25+6 base AC SEQ ID NO:79. GT SEQ ID NO:25 and AC SEQ ID NO:79 were hybridized by mixing the sequences (1:1) and heating for 10 minutes at 65° C. As controls, GT SEQ ID NO:25 and AC SEQ ID NO:79 were heated for 10 minutes at 65° C. (Table 33). Apoptosis was evaluated as in Example 23.

caspase 3 [10] = test: Active caspase 3 by FITC-conjugated antibody flow cytometry; type: cell-based, human; conditions: Jurkat, 72 h, 100 μg/ml, cytometric (FIG. 2A)
Protocol: (§4) To determine caspase activation, control and treated cells are washed, fixed, permeabilized and incubated with an FITC-conjugated antibody that recognizes the active form of the caspase (Pharmingen, San Diego, Calif.) using the conditions recommended by the manufacturer. Fluorescence associated with active caspase 3 is analyzed by flow cytometry on a FACSCALIBUR using the program CellQUEST (Becton Dickinson). Alternatively, caspase activation is determined colorimetrically using an assay based on the cleavage of a caspase-specific peptide conjugated to the color reporter molecule p-nitroanilide, which can be quantitated spectrophotometrically at a wavelength of 405 nm.
(§5) Jurkat T cell leukemia cells were incubated for 72 h with 33 base GT SEQ ID NO:66; 11 base GT SEQ ID NO:81 (bases 1-11 of GT SEQ ID NO:66), 11 base GT SEQ ID NO:82 (bases 12-22 of GT SEQ ID NO:66), 11 base GT SEQ ID NO:83 (bases 23-33 of GT SEQ ID NO:66) and 15 base ACG SEQ ID NO:67. Active caspase 3 (17-22 kDa) was determined using FITC conjugated antibody (Clone: C92-605) as in Example 28.

caspase 3 [11] = test: Caspase 3 activation, colorimetric (p-nitroanilide peptide cleavage); type: cell-based, human; conditions: Jurkat, 72 h, 100 μg/ml
Protocol: as §4, §5
Caspase 3 activation also was determined colorimetrically as in Example 28.
Jurkat T cell leukemia cells were incubated for 72 h with 6 base GT SEQ ID NO:25. Caspase 3 activation was determined colorimetrically as in Example 28.

[12] = tested on: THP-1 human acute monocytic leukemia cells; test: Cytokine production by THP-1 cells (ELISA); type: cell-based; conditions: THP-1, 1×10^6 cells, 100 μg/ml, 48 h
How it was run: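 1×10^6 cells exposed to 100 μg/ml of each oligonucleotide sequence for 48 h at 37° C in 5% CO2, unless stated otherwise. Cytokines quantified in culture supernatant by ELISA, IL-12 assay detecting both p70 and free p40; values are fold increase over untreated control cells.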

[13] = tested on: LNCaP human prostate cancer cells; test: LNCaP human prostate cancer xenografts in male nude nu/nu mice; type: in vivo; conditions: after 4 weeks of treatment, compared with other groups (group 1 saline, group 5 BCG A-3)
Protocol: LNCaP human prostate cancer cells are implanted subcutaneously, as xenografts, in male nude nu/nu mice. The mice are divided into 5 groups of 10 mice. On day 0, group 1 mice receive saline, group 2 mice receive 3 base SEQ ID NO:8, group 3 mice receive 6 base GT SEQ ID NO:25, group 4 mice receive 6 base AG SEQ ID NO:45 and group 5 mice receive 45 base BCG A-3 SEQ ID NO:69. After 4 weeks of treatment, the mice are sacrificed and timor mass is determined.

[14] = 5-fluorouracil 0.1 μg/ml, alone or with sequence at 1.0 μg/ml
[15] = 5-fluorouracil 1.0 μg/ml, alone or with sequence at 1.0 μg/ml
[16] = 5-fluorouracil 10.0 μg/ml, alone or with sequence at 1.0 μg/ml
[17] = sequence at 1.0 μg/ml, 5-fluorouracil 0.0 μg/ml

GGGTGGGGGTGGGGGTGGGGGTGG (unmodified DNA) [SEQ ID NO:70]
% INHIBITION of Jurkat human leukemia T cell proliferation [1]: 13% | melting temperature (Tm) [2]: 86.3 °C

GTGTGTGTGTGTGTGTGTGTGTGTGTG [SEQ ID NO:1] (chemistry not given here)
% INHIBITION of CF-51 canine mammary gland cancer cell proliferation [3]: 23% | % INHIBITION of EL-4 murine T lymphoma cell proliferation [4]: 1% | % of cells in phase: G0/G1 [5]: 40.6% | % of cells in phase: G2/M [5]: 0.3% | % of cells in phase: SE [5]: 35.6% | % of cells in phase: SL [5]: 9.3% | % of cells in phase: SM [5]: 14.2% | Arrest (cell cycle) [5]: End SE | % INHIBITION of MCF-7 proliferation, 5-Fluorouracil 0.1 μg/ml [6, 14]: 24% | % INHIBITION of MCF-7 proliferation, 5-Fluorouracil 1.0 μg/ml [6, 15]: 35% | % INHIBITION of MCF-7 proliferation, 5-Fluorouracil 10.0 μg/ml [6, 16]: 33% | potentiation of antineoplastic effect of 5-fluorouracil on MCF-7 cell proliferation ([6]; sequence 1.0 μg/ml, 0.1 μg/ml 5-fluorouracil): did not potentiate | potentiation of antineoplastic effect of tamoxifen on MCF-7 cell proliferation ([6]; sequence 1.0 μg/ml, 0.1 μg/ml tamoxifen): did not potentiate | % INHIBITION of MCF-7 proliferation, 5-Fluorouracil 0.0 μg/ml [6, 17]: 8% | % INHIBITION of MCF-7 proliferation, Tamoxifen 0.0 μg/ml ([6]; sequence at 1.0 μg/ml, tamoxifen 0.0 μg/ml): 8% | % INHIBITION of MCF-7 proliferation, Tamoxifen 0.1 μg/ml ([6]; tamoxifen 0.1 μg/ml, alone or with sequence at 1.0 μg/ml): 19% | % INHIBITION of MCF-7 proliferation, Tamoxifen 1.0 μg/ml ([6]; tamoxifen 1.0 μg/ml, alone or with sequence at 1.0 μg/ml): 24% | % INHIBITION of MCF-7 proliferation, Tamoxifen 10.0 μg/ml ([6]; tamoxifen 10.0 μg/ml, alone or with sequence at 1.0 μg/ml): 20% | % INHIBITION of D-17 canine osteosarcoma cell proliferation [7]: 23% | % INHIBITION of Jurkat human leukemia T cell proliferation [1]: 51% | % INHIBITION of Jurkat proliferation, 5-Fluorouracil 0.1 μg/ml [1, 14]: 15% | % INHIBITION of Jurkat proliferation, 5-Fluorouracil 1.0 μg/ml [1, 15]: 25% | % INHIBITION of Jurkat proliferation, 5-Fluorouracil 10.0 μg/ml [1, 16]: 41% | % INHIBITION of Jurkat proliferation, Cisplatin 0.1 μg/ml ([1]; cisplatin 0.1 μg/ml, alone or with sequence at 1.0 μg/ml): 18% | % INHIBITION of Jurkat proliferation, Cisplatin 1.0 μg/ml ([1]; cisplatin 1.0 μg/ml, alone or with sequence at 1.0 μg/ml): 35% | % INHIBITION of Jurkat proliferation, Cisplatin 10.0 μg/ml ([1]; cisplatin 10.0 μg/ml, alone or with sequence at 1.0 μg/ml): 76% | potentiation of antineoplastic effect of 5-fluorouracil on Jurkat T cell proliferation ([1]; sequence 1.0 μg/ml, 0.1 and 1.0 μg/ml 5-fluorouracil): potentiated | % INHIBITION of Jurkat proliferation, 5-Fluorouracil 0.0 μg/ml [1, 17]: 3% | % INHIBITION of Jurkat proliferation, Cisplatin 0.0 μg/ml ([1]; sequence at 1.0 μg/ml, cisplatin 0.0 μg/ml): 3% | tumor mass [8]: less tumor mass than group 1 mice | % NUMA RELEASED [9]: 22%

GTGTGTTTGGTGGTTTTGTTTGTTGTTTTTTTG (DNA, backbone not given here) [SEQ ID NO:66]
% INHIBITION of CF-51 canine mammary gland cancer cell proliferation [3]: 23% | % INHIBITION of EL-4 murine T lymphoma cell proliferation [4]: −1% | processing of inactive pro-caspase 3 to active caspase 3 (caspase 3 [10]): induced processing of inactive pro-caspase 3 to active caspase 3 | % INHIBITION of D-17 canine osteosarcoma cell proliferation [7]: 23% | caspase 3 activity greater than in control cells (caspase 3 [11]): 105%

TCCATCGCCAAGGAGATCGAGCTGGAGGATCCGTACGAGAAGATC (unmodified DNA) [BCG A-3, reference compound]
% of cells in phase: G0/G1 [5]: 32.3% | % of cells in phase: G2/M [5]: 21.4% | % of cells in phase: SE [5]: 20.2% | % of cells in phase: SL [5]: 12.0% | % of cells in phase: SM [5]: 14.1% | Arrest (cell cycle) [5]: None | ↑ IL-6 (fold increase treated vs control cells) [12]: 2.5x | ↑ IL-12 (fold increase treated vs control cells) ([12]; p70 complex and free p40): 1.7x | % INHIBITION of Jurkat human leukemia T cell proliferation [1]: 24% | tumor mass [13]: less tumor mass than group 1 mice
